Reference: patent publication US5409932A, “Piperazine-substituted pyrroloanthracenes” (Bayer AG, priority 1993, dated 1995)

system: human T cells; test: Inhibition of 5-HT-dependent T Cell Proliferation; format: cell-based; details: Homo sapiens, T-cell, monocyte-free human T cells stimulated with PWM and 5-HT; 3H-thymidine incorporation; 7 days
Description: The in vitro activity of the compounds according to the invention results from their capability to inhibit T cell proliferation, which is previously stimulated by serotonin.
Inhibition of 5-HT-dependent T Cell Proliferation
Peripheral mononuclear blood cells (PBMC) are obtained from the buffy coat of the blood of healthy subjects. After isolation by means of isolymph gradients (Pharmacia), the PBMC are washed twice and used directly. Purified T cells are obtained by E rosette formation with sheep erythrocytes [cf. Blue, M.-L. , J. F. Daley, H. Levine, K. A. Craig and S. F. Schlossmann, 1986, Biosynthesis and surface expression of T8 by peripheral blood T4+cells in vitro, J. Immunol. 137, 1202]. Monocytes are partially removed by adhesion to tissue culture plates or flasks. PBMC, T cells or purified T cells (depleted in monocytes) at 5×10^5 /ml, 100 μl/well are cultured in RPMI 1640 medium with 10% fetal calf serum (GIBCO) and L-glutamine in 96-well microculture plates (Becton--Dickinson)under a 5% CO2 atmosphere at 37° C. for 7 days. The cultures are treated with 1 μCi of ^3 H-thymidine for 6 h on the 7th day and collected on filter paper, and the incorporated radioactivity is determined by means of liquid scintillation counting.
The test substances are dissolved in 10 mM HCl in order to achieve a final concentration of 1 mM in each case. The compounds are diluted serially 3×with medium in order to obtain a final concentration between 33 μM-0.1 μM. PWM (1:200, pokeweed mitogen) and 5-HT (100 μm, serotonin), which contain the test substances, are added to monocyte-free human T cells. The positive control (maximum proliferation) is obtained from cultures containing T cells, PWM and 5-HT. The negative control (minimal proliferation) is obtained from cultures containing T cells and PWM without 5-HT. The inhibitory activity of the test substances is expressed as the IC50 in μM. (see also WO 92/04015)

| Compound | IC50 |
| --- | --- |
| O=C1C2C3c4ccccc4C(c4ccccc43)C2C(=O)N1CCCN1CCN(c2ccc(C(F)(F)F)cc2)CC1 (stereo not shown) [Example 10] | > 10 µM |
| O=C1N(CCCN2CCN(c3ccc(F)cc3)CC2)CC2C3c4ccccc4C(c4ccccc43)C12c1ccccc1 (stereo not shown) [Example 117] | 2 µM |
| O=C1C2C3c4ccccc4C(Cl)(c4ccccc43)C2C(=O)N1CCCN1CCN(c2ccc(F)cc2)CC1 (stereo not shown) [Example 35] | > 10 µM |
| NCC12c3ccccc3C(c3ccccc31)C1CN(CCCN3CCN(c4ccc(F)cc4)CC3)CC12 (stereo not shown) [Example 101] | 1 µM |
| FC(F)(F)c1ccc(N2CCN(CCCN3CC4C5c6ccccc6C(c6ccccc65)C4C3)CC2)cc1 (stereo not shown) [Example 75] | 2 µM |
| Cc1cccc(C)c1N1CCN(CCCN2C(=O)C3C4c5ccccc5C(c5ccccc54)C3C2=O)CC1 (stereo not shown) [Example 23] | > 10 µM |
| Clc1cccc(N2CCN(CCCN3CC4C5c6ccccc6C(c6ccccc65)C4C3)CC2)c1 (stereo not shown) [Example 78] | 5 µM |
| CC12c3ccccc3C(c3ccccc31)C1CN(CCCN3CCN(c4ccc(Cl)cc4)CC3)CC12 (stereo not shown) [Example 95] | 5 µM |
| ClC12c3ccccc3C(c3ccccc31)C1CN(CCCN3CCN(c4ccccc4)CC3)CC12 (stereo not shown) [Example 99] | 8 µM |
| O=C1C2C3c4ccccc4C(c4ccccc43)C2C(=O)N1CCCCN1CCN(c2ccccc2F)CC1 (stereo not shown) [Example 6] | > 10 µM |
| O=C1C2C3c4ccccc4C(Cl)(c4ccccc43)C2C(=O)N1CCCN1CCN(c2ccccc2)CC1 (stereo not shown) [Example 34] | > 10 µM |
| OCC12c3ccccc3C(c3ccccc31)C1CN(CCCN3CCN(c4ccc(F)cc4)CC3)CC12 (stereo not shown) [Example 98] | 10 µM |
| CC12c3ccccc3C(c3ccccc31)C1C(=O)N(CCCN3CCN(c4ccc(F)cc4)CC3)C(=O)C12 (stereo not shown) [Example 31] | > 10 µM |
| CCc1ccccc1N1CCN(CCCN2C(=O)C3C4c5ccccc5C(c5ccccc54)C3C2=O)CC1 (stereo not shown) [Example 20] | > 10 µM |
| COC(OC)C12c3ccccc3C(c3ccccc31)C1CN(CCCN3CCN(c4ccc(F)cc4)CC3)CC12 (stereo not shown) [Example 107] | 1 µM |
| FC(F)(F)c1ccc(N2CCN(CCCCN3CC4C5c6ccccc6C(c6ccccc65)C4C3)CC2)cc1 (stereo not shown) [Example 73] | 2 µM |
| Clc1ccc(N2CCN(CCCCN3CC4C5c6ccccc6C(c6ccccc65)C4C3)CC2)cc1 (stereo not shown) [Example 67] | 2 µM |
| O=C1C2C3c4ccccc4C(CCl)(c4ccccc43)C2CN1CCCN1CCN(c2ccc(F)cc2)CC1 (stereo not shown) [Example 113] | 2 µM |
| O=C1N(CCCN2CCN(c3ccc(F)cc3)CC2)C(=O)C2(Cl)C3c4ccccc4C(c4ccccc43)C12Cl (stereo not shown) [Example 51] | 50 µM |
| O=C1C2C3c4ccccc4C(c4ccccc43)C2CN1CCCN1CCN(c2cc(Cl)cc(Cl)c2)CC1 (stereo not shown) [Example 115] | 2 µM |
| O=C1C2C3c4ccccc4C(c4ccccc43)C2C(=O)N1CCN1CCN(c2ccccc2)CC1 (stereo not shown) [Example 3] | > 10 µM |

| Compound | IC50 |
| --- | --- |
| CC12CN(CCCN3CCN(c4ccccc4)CC3)CC1C1c3ccccc3C2c2ccccc21 (stereo not shown) [Example 104] | 2 µM |
| Cc1ccc(N2CCN(CCCN3CC4C5c6ccccc6C(c6ccccc65)C4C3)CC2)cc1C (stereo not shown) [Example 92] | 2 µM |
| CC12c3ccccc3C(c3ccccc31)C1CN(CCCN3CCN(c4ccc(F)cc4)CC3)CC12 (stereo not shown) [Example 96] | > 10 µM |
| O=C1C2C3c4ccccc4C(c4ccccc43)C2C(=O)N1CCCN1CCN(c2cccc(C(F)(F)F)c2)CC1 (stereo not shown) [Example 15] | > 10 µM |
| CC12CN(CCCN3CCN(c4ccc(F)cc4)CC3)CC1C1c3ccccc3C2c2ccccc21 (stereo not shown) [Example 105] | 2 µM |
| O=C1C2C3c4ccccc4C(c4ccccc43)C2C(=O)N1CCCN1CCN(c2ccccc2Cl)CC1 (stereo not shown) [Example 17] | > 10 µM |
| Clc1ccccc1N1CCN(CCCCN2CC3C4c5ccccc5C(c5ccccc54)C3C2)CC1 (stereo not shown) [Example 65] | 0.5 µM |
| FC(F)(F)c1cccc(N2CCN(CCCN3CC4C5c6ccccc6C(c6ccccc65)C4C3)CC2)c1 (stereo not shown) [Example 80] | 5 µM |
| COc1ccccc1N1CCN(CCCN2C(=O)C3C4c5ccccc5C(c5ccccc54)C3C2=O)CC1 (stereo not shown) [Example 21] | > 10 µM |
| O=C1C2C(CN1CCCN1CCN(c3ccc(F)cc3)CC1)C1(Cl)c3ccccc3C2(Cl)c2ccccc21 (stereo not shown) [Example 112] | 5 µM |
| O=C1C2C3c4ccccc4C(CCl)(c4ccccc43)C2C(=O)N1CCCN1CCN(c2ccc(F)cc2)CC1 (stereo not shown) [Example 48] | 10 µM |
| O=C1C2C(CN1CCCN1CCN(c3ccc(F)cc3)CC1)C1c3ccccc3C2(c2ccccc2)c2ccccc21 (stereo not shown) [Example 114] | 2 µM |
| COc1ccc(N2CCN(CCCCN3CC4C5c6ccccc6C(c6ccccc65)C4C3)CC2)cc1 (stereo not shown) [Example 70] | 0.5 µM |
| O=C1C2C3c4ccccc4C(c4ccccc43)C2C(=O)N1CCCN1CCN(c2ccccc2F)CC1 (stereo not shown) [Example 18] | > 10 µM |
| Fc1ccc(N2CCN(CCCCN3CC4C5c6ccccc6C(c6ccccc65)C4C3)CC2)cc1 (stereo not shown) [Example 69] | 0.6 µM |
| Cc1ccc(N2CCN(CCCN3CC4C5c6ccccc6C(c6ccccc65)C4C3)CC2)cc1 (stereo not shown) [Example 76] | 2 µM |
| O=C1C2C3c4ccccc4C(c4ccccc43)C2C(=O)N1CCCN1CCN(c2cccc(Cl)c2)CC1 (stereo not shown) [Example 13] | > 10 µM |
| COc1ccc(N2CCN(CCCN3CC4C5c6ccccc6C(c6ccccc65)C4C3)CC2)cc1 (stereo not shown) [Example 77] | 7 µM |
| C=CC12c3ccccc3C(c3ccccc31)C1C(=O)N(CCCN3CCN(c4ccc(F)cc4)CC3)C(=O)C12 (stereo not shown) [Example 37] | > 10 µM |
| Cc1cccc(N2CCN(CCCN3CC4C5c6ccccc6C(c6ccccc65)C4C3)CC2)c1 (stereo not shown) [Example 79] | 1 µM |
| CC12c3ccccc3C(c3ccccc31)C1CN(CCCN3CCN(c4ccccc4)CC3)CC12 (stereo not shown) [Example 94] | 7 µM |

| Compound | IC50 |
| --- | --- |
| Clc1cccc(N2CCN(CCCCN3CC4C5c6ccccc6C(c6ccccc65)C4C3)CC2)c1 (stereo not shown) [Example 66] | 2 µM |
| O=C1C2C3c4ccccc4C(c4ccccc43)C2C(=O)N1CCCN1CCN(c2ccccc2)CC1 (stereo not shown) [Example 7] | > 10 µM |
| Cc1ccccc1N1CCN(CCCCN2C(=O)C3C4c5ccccc5C(c5ccccc54)C3C2=O)CC1 (stereo not shown) [Example 8] | > 10 µM |
| O=C1C2C3c4ccccc4C(C=Cc4ccccc4)(c4ccccc43)C2C(=O)N1CCCN1CCN(c2ccc(F)cc2)CC1 (stereo not shown) [Example 38] | > 10 µM |
| N#CC12c3ccccc3C(c3ccccc31)C1C(=O)N(CCCN3CCN(c4ccc(F)cc4)CC3)C(=O)C12 (stereo not shown) [Example 36] | > 10 µM |
| C=CC12c3ccccc3C(c3ccccc31)C1CN(CCCN3CCN(c4ccc(F)cc4)CC3)CC12 (stereo not shown) [Example 102] | 2 µM |
| Fc1ccccc1N1CCN(CCCN2CC3C4c5ccccc5C(c5ccccc54)C3C2)CC1 (stereo not shown) [Example 83] | 7 µM |
| COc1ccc(N2CCN(CCCN3C(=O)C4C5c6ccccc6C(c6ccccc65)C4C3=O)CC2)cc1 (stereo not shown) [Example 12] | > 10 µM |
| Cc1cccc(N2CCN(CCCN3C(=O)C4C5c6ccccc6C(c6ccccc65)C4C3=O)CC2)c1 (stereo not shown) [Example 14] | > 10 µM |
| COc1ccc(N2CCN(CCCN3C(=O)C4C5c6ccccc6C(c6ccccc65)C4C3=O)CC2)cc1OC (stereo not shown) [Example 28] | > 10 µM |
| O=C1C2C3c4ccccc4C(c4ccccc43)C2C(=O)N1CCCN1CCN(c2ccc(F)cc2)CC1 (stereo not shown) [Example 1, 13-{3-[4-(4-Fluorophenyl)piperazin-1-yl]-propyl}-9,10-dihydro-9,10[3', 4']-pyrroloanthracene-12,14(11H,15H) dione] | > 10 µM |
| Cc1ccc(N2CCN(CCCN3C(=O)C4C5c6ccccc6C(c6ccccc65)C4C3=O)CC2)c(C)c1 (stereo not shown) [Example 25] | > 10 µM |
| COc1ccc(N2CCN(CCCN3CC4C5c6ccccc6C(c6ccccc65)C4C3)CC2)cc1OC (stereo not shown) [Example 93] | 10 µM |
| COc1cccc(N2CCN(CCCN3C(=O)C4C5c6ccccc6C(c6ccccc65)C4C3=O)CC2)c1 (stereo not shown) [Example 16] | > 10 µM |
| Cc1ccccc1N1CCN(CCCN2C(=O)C3C4c5ccccc5C(c5ccccc54)C3C2=O)CC1 (stereo not shown) [Example 19] | > 10 µM |
| Clc1ccc(N2CCN(CCCCN3CC4C5c6ccccc6C(c6ccccc65)C4C3)CC2)cc1Cl (stereo not shown) [Example 68] | 5 µM |
| O=C1C2C3c4ccccc4C(c4ccccc43)C2C(=O)N1CCCCN1CCN(c2ccccc2)CC1 (stereo not shown) [Example 4] | 5 µM |
| O=C1C2C3c4ccccc4C(CO)(c4ccccc43)C2C(=O)N1CCCN1CCN(c2ccccc2)CC1 (stereo not shown) [Example 32] | > 10 µM |
| CCOc1ccccc1N1CCN(CCCN2C(=O)C3C4c5ccccc5C(c5ccccc54)C3C2=O)CC1 (stereo not shown) [Example 22] | > 10 µM |

same assay, conditions: monocyte-free human T cells stimulated with PWM and 5-HT; 3H-thymidine incorporation; 7 days

| Compound | IC50 |
| --- | --- |
| CC12c3ccccc3C(C)(c3ccccc31)C1C(=O)N(CCCN3CCN(c4ccc(F)cc4)CC3)C(=O)C12 (stereo not shown) [Example 44] | > 10 µM |
| CC12c3ccccc3C(C)(c3ccccc31)C1C(=O)N(CCCN3CCN(c4ccc(F)cc4)CC3)C(=O)C12 (stereo not shown) [Example 110] | 2 µM |
| O=C1C2C(C(=O)N1CCCN1CCN(c3ccc(F)cc3)CC1)C1(Br)c3ccccc3C2(Br)c2ccccc21 (stereo not shown) [Example 111] | 10 µM |
